Test results published in article PMC9628931 (Chemical Science, 2022).

Legend:
AsAKS1 (BAHD3, 43565_t) = molecular target: T1, AsAKS1 (BAHD3, 43565_t) (Alstonia scholaris, UniProt A0A9E7S5E3); experiment: LCMS detection of akuammiline; type: biochemical; conditions: co-substrate rhazimol
T1 sequence (A0A9E7S5E3 1-419): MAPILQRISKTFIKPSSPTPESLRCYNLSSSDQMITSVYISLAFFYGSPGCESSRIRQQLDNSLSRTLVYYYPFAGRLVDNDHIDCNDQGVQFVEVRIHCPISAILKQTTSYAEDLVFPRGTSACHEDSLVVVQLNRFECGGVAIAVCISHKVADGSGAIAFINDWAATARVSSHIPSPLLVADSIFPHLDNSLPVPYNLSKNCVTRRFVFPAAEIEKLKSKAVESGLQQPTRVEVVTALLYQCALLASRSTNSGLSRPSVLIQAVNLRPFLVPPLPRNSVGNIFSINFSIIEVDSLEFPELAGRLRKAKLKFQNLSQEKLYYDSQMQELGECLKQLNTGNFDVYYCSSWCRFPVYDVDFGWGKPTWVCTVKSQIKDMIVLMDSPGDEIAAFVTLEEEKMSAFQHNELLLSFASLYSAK

AsAKS2 (BAHD5, 37058_t) = molecular target: T2, AsAKS2 (BAHD5, 37058_t) (Alstonia scholaris, UniProt A0A9E7LUL3); experiment: LCMS detection of akuammiline; type: biochemical; conditions: co-substrate rhazimol
T2 sequence (A0A9E7LUL3 1-450): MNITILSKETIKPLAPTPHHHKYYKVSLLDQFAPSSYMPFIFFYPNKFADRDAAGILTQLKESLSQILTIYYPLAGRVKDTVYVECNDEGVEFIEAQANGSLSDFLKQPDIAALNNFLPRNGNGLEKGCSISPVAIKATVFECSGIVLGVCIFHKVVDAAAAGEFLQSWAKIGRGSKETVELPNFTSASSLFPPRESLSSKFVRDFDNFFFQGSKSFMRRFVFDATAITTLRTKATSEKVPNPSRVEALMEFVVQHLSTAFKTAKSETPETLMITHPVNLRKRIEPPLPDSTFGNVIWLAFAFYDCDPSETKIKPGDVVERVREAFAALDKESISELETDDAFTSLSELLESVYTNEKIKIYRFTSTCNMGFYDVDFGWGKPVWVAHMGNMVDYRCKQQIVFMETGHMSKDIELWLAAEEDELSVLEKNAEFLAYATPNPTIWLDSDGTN

With `CC(=O)SCCNC(=O)CCNC(=O)[C@H](O)C(C)(C)COP(=O)(O)OP(=O)(O)OC[C@H]1O[C@@H](n2cnc3c(N)ncnc32)[C@H](O)[C@@H]1OP(=O)(O)O` [acetyl-CoA] the “LCMS detection of akuammiline” value (AsAKS1 (BAHD3, 43565_t)) was “The BAHD candidates were assayed by incubation with rhazimol and acetyl-CoA” and the “LCMS detection of akuammiline” value (AsAKS2 (BAHD5, 37058_t)) was “The BAHD candidates were assayed by incubation with rhazimol and acetyl-CoA”.
